Experimental findings from the NIST ThermoML archive (doi:10.1016/j.fluid.2015.05.032) are described below.

Series [1] is described as follows: refractive index (Na D-line) (dimensionless). To be noted: 293.15 K; 101.33 kPa; Liquid; Standard Abbe refractometry.
The conditions of series [2]: Liquid; for mass density: 298.15 K, 101.33 kPa, Vibrating tube method; for Normal boiling temperature: Ebulliometric method (Recirculating still).

Numbers after ± are expanded uncertainties.

Take `CCC(C)OC(C)=O` (configuration not stated) [1-methylpropyl ethanoate]: the refractive index in series [1] came to 1.3886 ± 0.0004. For the same compound, in series [2], the mass density is 866.4 ± 0.3 kg/m3 and the Normal boiling temperature came out at 111.93 ± 0.2 °C.
In the case of `COC(C)=O` [methyl ethanoate], the refractive index in series [1] worked out at 1.3614 ± 0.0004. In series [2], the mass density was determined as 927.5 ± 0.3 kg/m3 and the Normal boiling temperature turned out to be 56.7 ± 0.2 °C.
For `CC(=O)O` [acetic acid], in that order: 1.3718 ± 0.0004, 1043.5 ± 0.3 kg/m3 and 117.93 ± 0.2 °C.
Take `Cc1ccc(C)cc1` [1,4-dimethylbenzene]: in series [1], the refractive index is recorded as 1.4952 ± 0.0004. In series [2], the mass density amounted to 856.5 ± 0.3 kg/m3 and the Normal boiling temperature is 138.47 ± 0.2 °C.
